Measured values from patent US8273730B2, “Use of estriol in low doses” (Italfarmaco, SA, priority 2007, dated 2012).

Tested on: vaginal atrophy in female ovariectomized Wistar Han rats
Assay: Assay I: assessment of the effect on vaginal atrophy (vaginal smears: cornified cells, maturation index, overall trophism)
Type: in vivo, rat
Settings: dose 10 times less than the usual dose; rats of both groups (cream and gel)
Method: In this study a total of 8 female ovariectomized Wistar Han rats were used, which were randomly distributed into 2 groups with 4 animals each. Group A was treated with Formulation 1 whereas Group B was treated with Formulation 2.
After 18 days had elapsed from the reception of the ovariectomized animals, several vaginal smears were periodically performed in each rat, until the menopausal condition (particularly vaginal atrophy) was verified in all the rats, determining the maturation index of the vaginal epithelium.
Once the treatment had started, Formulations 1 (0.005% estriol cream) and 2 (0.005% estriol gel) were administered to experimental Group A and B, respectively, once a day for 5 days. The administration was carried out by vaginal route, in an amount of 5.8 mg of formulation/animal (corresponding to 0.29 μg of estriol/animal), using a positive displacement multipipette equipped with a special tip. […]
The effect of the treatment with each of the formulations was assessed by means of the appearance of cornified cells, the determination of the maturation index of the vaginal epithelium and the evaluation of the overall trophism.

## C[C@]12CC[C@@H]3c4ccc(O)cc4CC[C@H]3[C@@H]1C[C@@H](O)[C@@H]2O [estriol]
  Effect on vaginal atrophy condition: reverses the vaginal atrophy condition
